In patent publication US20240360114A1 (SIRONAX LTD., priority 2021, published 2024) one finds EC50 data, which are given here for 39 compounds.

The first experiment deals with HT-1080 cells. Put plainly: HT-1080 cell viability assay (ferroptosis induced by RSL3, Cell Titer-Glo). In kind it is cell-based. Particulars: Homo sapiens, HT-1080, 20 h, ferroptosis inducer RSL3, 20 hours, ferroptosis inhibitory activity, Table 2. In a few lines: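 Cells seeded overnight, then co-treated with RSL3 and compound (3-fold, 10-point dilution, top 1.1 μM) for 20 hours. Viability by CellTiter-Glo luminescence, normalized to untreated controls; EC50 from sigmoidal non-linear regression.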
On the technique in general: In ATP-based viability assays light output follows the ATP content of the culture.
On to `CCCCCN(CC)c1ccc(NC[C@H]2CC[C@H](N)CC2)cc1` [Compound 386, N1-(((1r,4r)-4-aminocyclohexyl)methyl)-N4-ethyl-N4-pentylbenzene-1,4-diamine], for which the EC50 (commonly the midpoint of the concentration-response curve) was in the range of 0.0001 to 0.1 µM. Same read-out and setting: then `Cc1cc(N2CC(C)OC(C)C2)ccc1NC[C@H]1CC[C@H](N)CC1` (stereo partly drawn) [Compound 387, N-(((1r,4r)-4-aminocyclohexyl)methyl)-4-(2,6-dimethylmorpholino)-2-methylaniline], with 0.0001 to 0.1 µM; and `CC(C)C1CCN(c2ncc(NC3C4CC5CC3CC(C(N)=O)(C5)C4)cn2)CC1` (stereo not drawn) [Compound 388, 4-((2-(4-isopropylpiperidin-1-yl)pyrimidin-5-yl)amino)adamantane-1-carboxamide], with 0.0001 to 0.1 µM; and `CCC1CCN(c2ccc(NC[C@H]3CC[C@H](N)CC3)c(C)c2)CC1` [Compound 389, N-(((1r,4r)-4-aminocyclohexyl)methyl)-4-(4-ethylpiperidin-1-yl)-2-methylaniline], with 0.0001 to 0.1 µM. On to `CCC1CCN(c2ccc(NC3CCC(N)CC3)c(C)c2)CC1` (stereo not drawn) [Compound 390, N1-(4-(4-ethylpiperidin-1-yl)-2-methylphenyl)cyclohexane-1,4-diamine], for which the EC50 fell in the range of 0.0001 to 0.1 µM. In turn, `Cc1cc(N2CCC(C(F)(F)F)CC2)cc(C)c1NCC[C@H]1CC[C@H](N)CC1` [Compound 391, N-(2-((1r,4r)-4-aminocyclohexyl)ethyl)-2,6-dimethyl-4-(4-(trifluoromethyl)piperidin-1-yl) aniline] showed an EC50 of 0.0001 to 0.1 µM.

The compound `Cc1cc(N2CCCCC2)ccc1NC1C[C@H]2CC(N)C[C@H]2C1` (stereo partly drawn) [Compound 392, (3aR,6aS)-N2-(2-methyl-4-(piperidin-1-yl)phenyl) octahydropentalene-2,5-diamine] had an EC50 of 0.0001 to 0.1 µM. Same read-out and setting: then `Cc1cc(N(C)C)ccc1NC[C@H]1CC[C@H](N)CC1` [Compound 393, N^1-(((1r,4r)-4-aminocyclohexyl)methyl)-N4,N4,2-trimethylbenzene-1,4-diamine], with 0.0001 to 0.1 µM; and `N[C@H]1CC[C@H](CCNc2ccc(N3CCC(C(F)(F)F)CC3)cc2F)CC1` [Compound 394, N-(2-((1r, 4r)-4-aminocyclohexyl)ethyl)-2-fluoro-4-(4-(trifluoromethyl)piperidin-1-yl)aniline], with 0.0001 to 0.1 µM. On the same count and under the same terms, then `N[C@H]1CC[C@H](CNc2ccc(N3CCC(C(F)(F)F)CC3)nc2F)CC1` [Compound 395, N-(((1r, 4r)-4-aminocyclohexyl)methyl)-2-fluoro-6-(4-(trifluoromethyl)piperidin-1-yl)pyridin-3-amine], with 0.0001 to 0.1 µM. Same read-out and setting: then `CC1CCN(c2ncc(NC[C@H]3CC[C@H](N)CC3)cc2C(F)(F)F)CC1` [Compound 396, N-(((1r,4r)-4-aminocyclohexyl)methyl)-6-(4-methylpiperidin-1-yl)-5-(trifluoromethyl)pyridin-3-amine], with 0.0001 to 0.1 µM. With `NC1CC2(C1)CC(Nc1ccc(N3CCC(C(F)(F)F)CC3)nc1)C2` (stereo not drawn) [Compound 397, N2-(6-(4-(trifluoromethyl)piperidin-1-yl)pyridin-3-yl)spiro[3.3]heptane-2,6-diamine], the EC50 lay in the range of 0.0001 to 0.1 µM. The same measure, in the same setting: then `N[C@H]1CC[C@H](CNc2ccc(N3CCC(C(F)(F)F)CC3)nc2)CC1` [Compound 398, N-(((1r,4r)-4-aminocyclohexyl)methyl)-6-(4-(trifluoromethyl)piperidin-1-yl)pyridin-3-amine], with 0.0001 to 0.1 µM. Same read-out and setting: then `CC(C)C1CCN(c2cnc(NC3CCC(N)CC3)cn2)CC1` (stereo not drawn) [Compound 399, N1-(5-(4-isopropylpiperidin-1-yl)pyrazin-2-yl)cyclohexane-1,4-diamine], with 0.0001 to 0.1 µM; and `CC(C)C1CCN(c2cnc(NC3CCC(N)CC3)nc2)CC1` (stereo not drawn) [Compound 400, N1-(5-(4-isopropylpiperidin-1-yl)pyrimidin-2-yl)cyclohexane-1,4-diamine], with 1 to 10 µM.

Consider `CC(C)C1CCN(c2ncc(NC3C[C@H]4CC(NO)C[C@H]4C3)cn2)CC1` (stereo partly drawn) [Compound 401, N-((3aR, 6aS)-5-(hydroxyamino)octahydropentalen-2-yl)-2-(4-isopropylpiperidin-1-yl) pyrimidin-5-amine], for which the concentration giving a half-maximal response (EC50) lay within 0.0001 to 0.1 µM. Same read-out and setting: then `NC1CCCCC1Nc1ccc(N2CCC(C(F)(F)F)CC2)cc1` (stereo not drawn) [Compound 402, N1-(4-(4-(trifluoromethyl)piperidin-1-yl)phenyl)cyclohexane-1,2-diamine], with 0.0001 to 0.1 µM; and `CC(C)C1CCN(c2ncc(NC3CC4(CC(NC(=O)C(N)=O)C4)C3)cn2)CC1` (stereo not drawn) [Compound 403, N1-(6-((2-(4-isopropylpiperidin-1-yl)pyrimidin-5-yl)amino)spiro[3.3]heptan-2-yl)oxalamide], with 0.0001 to 0.1 µM. `CC(C)C1CCN(c2ncc(NC3CCC(C(N)=O)CC3)cn2)CC1` (stereo not drawn) [Compound 404, 4-((2-(4-isopropylpiperidin-1-yl)pyrimidin-5-yl)amino)cyclohexane-1-carboxamide]: the EC50 is 0.0001 to 0.1 µM. Turning to `CC1CCN(c2ncc(NC3C4CC5CC3CC(C(N)=O)(C5)C4)cn2)CC1` (stereo not drawn) [Compound 405, 4-((2-(4-methylpiperidin-1-yl)pyrimidin-5-yl)amino)adamantane-1-carboxamide], the EC50 fell in the range of 0.0001 to 0.1 µM. The same measure, in the same setting: then `CC(C)C1CCN(c2ccc(NC3CCC(N)CC3)nc2)CC1` (stereo not drawn) [Compound 406, N1-(5-(4-isopropylpiperidin-1-yl)pyridin-2-yl)cyclohexane-1,4-diamine], with 0.0001 to 0.1 µM. Still for that read-out and setting: then `CC(C)C1CCN(c2ncc(NC3C4CC5CC3CC(NC(N)=O)(C5)C4)cn2)CC1` (stereo not drawn) [Compound 408, 1-(4-((2-(4-isopropylpiperidin-1-yl)pyrimidin-5-yl)amino)adamantan-1-yl)urea], with 0.0001 to 0.1 µM. On the same count and under the same terms, then `CC(C)C1CCN(c2ncc(NC[C@H]3CC[C@H](NC(N)=O)CC3)cn2)CC1` [Compound 409, 1-((1r,4r)-4-(((2-(4-isopropylpiperidin-1-yl)pyrimidin-5-yl)amino)methyl)cyclohexyl)urea], with 0.0001 to 0.1 µM; and `CC1(C)CCN(c2ncc(NC3C4CC5CC3CC(C(N)=O)(C5)C4)cn2)CC1` (stereo not drawn) [Compound 410, 4-((2-(4,4-dimethylpiperidin-1-yl)pyrimidin-5-yl)amino)adamantane-1-carboxamide], with 0.0001 to 0.1 µM; and `CC(C)C1CCN(c2ccc(NC3CCC(N)CC3)nn2)CC1` (stereo not drawn) [Compound 411, N1-(6-(4-isopropylpiperidin-1-yl)pyridazin-3-yl)cyclohexane-1,4-diamine], with 0.0001 to 0.1 µM. The compound `CC(C)C1CCN(c2ncc(NC3CC4(CC(NCCF)C4)C3)cn2)CC1` (stereo not drawn) [Compound 412, N2-(2-fluoroethyl)-N6-(2-(4-isopropylpiperidin-1-yl)pyrimidin-5-yl)spiro[3.3]heptane-2,6-diamine] gave an EC50 of 0.0001 to 0.1 µM.

The compound `CC(C)C1CCN(c2ncc(NC3CC4(CC(NCC(F)F)C4)C3)cn2)CC1` (stereo not drawn) [Compound 413, N2-(2,2-difluoroethyl)-N6-(2-(4-isopropylpiperidin-1-yl)pyrimidin-5-yl)spiro[3.3]heptane-2,6-diamine] showed an EC50 of 0.0001 to 0.1 µM. Same read-out and setting: then `CC(C)C1CCN(c2ncc(NC3CC4(CC(NCC(F)(F)F)C4)C3)cn2)CC1` (stereo not drawn) [Compound 414, N2-(2-(4-isopropylpiperidin-1-yl)pyrimidin-5-yl)-N6-(2,2,2-trifluoroethyl)spiro[3.3]heptane-2,6-diamine], with 0.0001 to 0.1 µM; and `OC1CCCCC1Nc1ccc(N2CCC(C(F)(F)F)CC2)cc1` (stereo not drawn) [Compound 415, 2-((4-(4-(trifluoromethyl)piperidin-1-yl)phenyl)amino)cyclohexan-1-ol], with 0.0001 to 0.1 µM; and `NC1CCC(Nc2ccc(N3CCC(C(F)(F)F)CC3)c(OCCO)c2)CC1` (stereo not drawn) [Compound 416, (5-((4-aminocyclohexyl)amino)-2-(4-(trifluoromethyl)piperidin-1-yl)phenoxy) ethan-1-ol], with 0.0001 to 0.1 µM. `Cc1cc(N2CC(C)CC(C)C2)ccc1NC[C@H]1CC[C@H](N)CC1` (stereo partly drawn) [Compound 418] yielded an EC50 of 0.0001 to 0.1 µM.

Consider `Cc1cc(N2CCC(C(F)(F)F)C2)ccc1NC[C@H]1CC[C@H](N)CC1` (stereo partly drawn) [Compound 419, N-(((1r,4r)-4-aminocyclohexyl)methyl)-2-methyl-4-(3-(trifluoromethyl)pyrrolidin-1-yl)aniline], for which the EC50 lay within 0.0001 to 0.1 µM. Still for that read-out and setting: then `CN[C@H]1CC[C@H](CNc2ccc(N3CC(C)OC(C)C3)cc2)CC1` (stereo partly drawn) [Compound 420, 4-(2,6-dimethylmorpholino)-N-(((1r,4r)-4-(methylamino)cyclohexyl)methyl)aniline], with 0.0001 to 0.1 µM; and `CC1CN(c2ccc(NC3C4CC5CC3CC(N)(C5)C4)cc2)CC(C)O1` (stereo not drawn) [Compound 421A, N^4-(4-(2,6-dimethylmorpholino)phenyl)adamantane-1,4-diamine], with 0.0001 to 0.1 µM; and `CC(C)C1CCN(c2ncc(NC3CC4(CC(O)C4)C3)cn2)CC1` (stereo not drawn) [Compound 422, 6-((2-(4-isopropylpiperidin-1-yl)pyrimidin-5-yl)amino)spiro[3.3]heptan-2-ol], with 0.0001 to 0.1 µM.

Compound `CC(C)C1CCN(c2ncc(NC[C@H]3CC[C@H](C(N)=O)CC3)cn2)CC1` [Compound 423, (1r,4r)-4-(((2-(4-isopropylpiperidin-1-yl)pyrimidin-5-yl)amino)methyl)cyclohexane-1-carboxamide] yielded an EC50 of 0.0001 to 0.1 µM.

Regarding `CC(C)C1CCN(c2ncc(NC3C4CC5CC3CC(O)(C5)C4)cn2)CC1` (stereo not drawn) [Compound 424, 4-((2-(4-isopropylpiperidin-1-yl)pyrimidin-5-yl)amino) adamantan-1-ol], the EC50 lay in the range of 0.0001 to 0.1 µM. Compound `CC1CC(C)CN(c2ncc(NC3CC4(CC(NC(=O)C(N)=O)C4)C3)cn2)C1` (stereo not drawn) [Compound 425, N1-(6-((2-(3,5-dimethylpiperidin-1-yl)pyrimidin-5-yl)amino)spiro[3.3]heptan-2-yl)oxalamide] gave an EC50 of 0.0001 to 0.1 µM.

Still in this experiment, the particulars now being: ferroptosis inducer RSL3, 20 hours, ferroptosis inhibitory activity, Table 2.
Turning to `Cc1cc(N2CC(C)OC(C)C2)ccc1NCC1CCC(N)CC1` (stereo not drawn) [Compound 407, N-(((1r,4r)-4-aminocyclohexyl)methyl)-4-(2,6-dimethylmorpholino)-2-methylaniline], the EC50 lay within 0.0001 to 0.1 µM.
